Results published in patent US10689383B2, “Optionally fused heterocyclyl-substituted derivatives of pyrimidine useful for the treatment of inflammatory, metabolic, oncologic and autoimmune diseases” (NUEVOLUTION A/S, priority 2014, dated 2020).

Assays:
[1] = biological target: T1, yeast Gal4-DNA binding domain fused to the ligand binding domain of human RORγ (Homo sapiens, UniProt P51449); assay: RORγ Reporter Assay (Gal4); type: cell-based; conditions: values given as lower bounds of ranges; for Gal4 activity range @ 0.1 μM (% inhibition): RORγ Reporter Assay (Gal4) at 0.1 μM; for Gal4 activity range @ 1 μM (% inhibition): RORγ Reporter Assay (Gal4) at 1 μM
T1 construct: host or cells: HEK293t
T1 sequence (P51449 269-508 limits assumed): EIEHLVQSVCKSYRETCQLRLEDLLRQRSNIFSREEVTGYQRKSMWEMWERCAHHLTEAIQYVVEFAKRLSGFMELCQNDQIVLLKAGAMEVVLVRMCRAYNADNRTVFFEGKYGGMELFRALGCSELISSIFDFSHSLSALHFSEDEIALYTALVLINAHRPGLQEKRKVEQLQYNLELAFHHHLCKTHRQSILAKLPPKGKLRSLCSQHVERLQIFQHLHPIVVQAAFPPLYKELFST
How it was run: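 Compound at final 1,000 or 100 nM (0.1% DMSO, triplicate) was added to the transfected HEK293t cells carrying a Gal4-UAS luciferase reporter for 24 h at 37 °C, 10% charcoal-stripped FBS. Activity reduction expressed as percent of vehicle-only luciferase signal.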

[2] = biological target: T2, human RORγt (Ligand Binding Domain) (Homo sapiens, UniProt P51449); assay: Fluorescence Polarization (FP) Assay; conditions: Fluorescence Polarization (FP) Assay; values given as upper bounds of activity ranges; read-out: FP activity range
T2 construct: purchased Crelux (Planegg, Germany) batch no PC5032-1
T2 sequence (P51449 269-508 limits assumed): T1 sequence (P51449 269-508 limits assumed)
How it was run: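 Binding to the ligand pocket followed by fluorescence polarization with a TAMRA-tagged RORγt ligand probe of 910 g/mole. Negative control wells received DMSO only.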

[3] = test system: female C57BL/6 mice; assay: Experimental Autoimmune Encephalomyelitis (EAE) Study; type: in vivo; conditions: 10 and 30 mg/kg, orally twice daily, 25 days
[4] = test system: male DBA/1J mice; assay: Collagen-Induced Arthritis (CIA) Study; type: in vivo; conditions: orally twice daily
Experimental: Collagen-induced arthritis is an animal model of rheumatoid arthritis used to evaluate the efficacy of test compounds. CIA was induced at Washington Biotechnology Inc. (Baltimore) in male DBA/1J mice (Jackson Laboratories) by subcutaneous injection at the base of the tail with 50 μl of a bovine collagen/complete Freund's adjuvant emulsion. After 21 days, the mice were further boosted by a further subcutaneous injection of 50 μl of a collagen/incomplete Freund's adjuvant emulsion. For treatment, compound or vehicle (2% DMSO, 10% HP-β-CD in MilliQ water) was given orally twice daily at various doses selected from 3, 10, 30 mg/kg, beginning at the day of CIA induction (Prophylactic setting), or after disease initiation (at day 27, therapeutic setting). Treatment lasted until day 41, and the animals were scored three times weekly. Each paw was scored and the sum of all four scores was recorded as the Arthritic Index (AI). The maximum possible AI was 16.0=no visible effects of arthritis; 1=edema and/or erythema of one digit; 2=edema and/or erythema of 2 joints; 3=edema and/or erythema of more than 2 joints; 4=severe arthritis of the entire paw and digits including limb deformation and ankylosis of the joint. The Arthritis Index for each treatment can be expressed as the mean score for each treatment group+/−S.E.M.

[5] = test system: Th17 cells; assay: Th17 Assay (IL-17 levels in supernatants by ELISA); type: cell-based; conditions: Homo sapiens; read-out: Th17 activity range @ 1 μM (% inhibition)
Experimental: The activity of the compounds was evaluated using a Fluorescence Polarization (FP) Assay and, in most cases, a Th17 Assay and/or RORγ Reporter assay (also referred to as Gal4 assay). The FP assay is an in vitro assay monitoring binding within the ligand binding pocket. The RORγ and the Th17 assays are both cell-based assays monitoring functional activity of the compound assayed.
Human peripheral blood mononuclear cells (PBMCs) were isolated from buffy coats of healthy human volunteers using the Ficoll paque PLUS kit (GE Healthcare, cat no 17-1440-02), as instructed by the manufacturer. Naive CD4+ T cells were isolated with Naive CD4+ T cell kit, human (Milteny Biotec, cat no 130-094-131). The following modifications were made to the manufacturer's protocol: 1) Incubation with Biotin-Antibody Cocktail and Anti-Biotin MicroBeads was prolonged to 30 minutes, and 2) Cells were washed with 40 mL of Miltenyi buffer. Differentiation of Th17 cells in anti-CD3 (BD Pharmingen, 5 μg/ml) coated 96-well plates (400,000 cells/well, 160 μl RPMI 1640+10% Fetal Bovine Serum) containing 5 μg/ml anti-CD28 (BD Pharmingen), 10 ng/ml IL-2 (R&D Systems), 2.5 ng/ml TGFβ-1 (R&D Systems), 20 ng/ml IL-1β (R&D Systems), 20 ng/ml IL-6 (R&D Systems), 30 ng/ml IL-23 (R&D Systems), 2.5 μg/ml anti-IL-4 (R&D Systems) and 1 μg/ml anti-IFNγ (R&D Systems) and with test compound during the entire differentiation (or vehicle, 0.1% DMSO for control). Test compounds were tested in triplicates, diluted 1000-fold in medium (final DMSO concentration is 0.1%). Incubated for seven days at 37° C., 5% CO2, 95% humidity, and 2-fluoro-4′-[[4-(4-pyridinylmethyl)-1-piperazinyl]methyl]-α,α-bis(trifluoromethyl)-[1,1′-biphenyl]-4-methanol (SR2211 Calbiochem, Cat. No. 557353) was used as positive control. As negative control, cells were differentiated into Th0 using 5 μg/ml anti-CD28 (BD Pharmingen), 10 ng/ml IL-2 (R&D Systems), 2 μg/ml anti-IL4 (R&D Systems) and 2 μg/ml anti-IFNγ (R&D Systems) are negative control. IL-17 levels in supernatants were measured with ELISA (R&D Systems).

Gal4 activity range @ 0.1 μM (% inhibition) [1] [% inhibition]	Gal4 activity range @ 1 μM (% inhibition) [1] [% inhibition]	IC50 [2] [nM]	SMILES	EAE clinical score [3]	onset of EAE [3]	CIA disease development, therapeutic setting ([4]; 30 mg/kg, from day 27)	CIA disease severity, prophylactic setting ([4]; 10 and 30 mg/kg, from day of CIA induction)	inhibition at 1 µM [5] [%]
>50	>80	< 500	NC(=O)Cc1ccc(CNc2ncnc(N3CCOC[C@@H]3c3ccc(C(F)(F)F)cc3)c2F)cc1 [Example 204, 2-[4-[[[5-fluoro-6-[(3S)-3-[4-(trifluoromethyl)phenyl]morpholin-4-yl]pyrimidin-4-yl]amino]methyl]phenyl]acetamide]	lower clinical score	delay onset	arrest disease development	significantly reduce disease severity	–
–	>80	< 500	CC(C)(C)C[C@@H](Nc1ncnc(N2CCC[C@@H]2c2ccc(C(F)(F)F)cc2)c1F)C(N)=O (single isomer, unassigned) [Example 62, (2R)-2-[[5-fluoro-6-[(2R)-2-[4-(trifluoromethyl)phenyl]pyrrolidin-1-yl]pyrimidin-4-yl]amino]-4,4-dimethyl-pentanamide or (2R)-2-[[5-fluoro-6-[(2S)-2-[4-(trifluoromethyl)phenyl]pyrrolidin-1-yl]pyrimidin-4-yl]amino]-4,4-dimethyl-pentanamide]	–	–	–	–	> 80
–	>80	< 500	O=C(O)Cc1ccc(CNc2ncnc(N3CCC[C@@H]3c3ccc(C(F)(F)F)cc3)c2F)cc1 [Example 81, 2-[4-[[[5-fluoro-6-[(2R)-2-[4-(trifluoromethyl)phenyl]pyrrolidin-1-yl]pyrimidin-4-yl]amino]methyl]phenyl]acetic acid]	–	–	–	–	> 80
>80	>80	< 500	Fc1c(NCc2ccc(Cn3ccnc3)cc2)ncnc1N1CCCC1c1ccc(C(F)(F)F)cc1 (centres unmarked) [Example 94, 5-fluoro-N-[[4-(imidazol-1-ylmethyl)phenyl]methyl]-6-[2-[4-(trifluoromethyl)phenyl]pyrrolidin-1-yl]pyrimidin-4-amine]	–	–	–	–	> 80
–	>80	< 500	CC(C)(C)C[C@H](CO)Nc1ncnc(N2CCCC2c2ccc(C(F)(F)F)cc2)c1F (stereo partly drawn) [Example 30, (2R)-2-[[5-fluoro-6-[2-[4-(trifluoromethyl)phenyl]pyrrolidin-1-yl]pyrimidin-4-yl]amino]-4,4-dimethyl-pentan-1-ol]	–	–	–	–	> 50
–	>50	< 500	O=C(O)Cc1ccc(COc2ncnc(N3CCCC3c3ccc(C(F)(F)F)cc3)c2F)cc1 (centres unmarked) [Example 79, 2-[4-[[5-fluoro-6-[2-[4-(trifluoromethyl)phenyl]pyrrolidin-1-yl]pyrimidin-4-yl]oxymethyl]phenyl]acetic acid]	–	–	–	–	> 50
–	>80	< 500	O=C(O)Cc1ccc(Cn2ccc3c(N4CCCC4c4ccc(C(F)(F)F)cc4)ncnc32)cc1 (centres unmarked) [Example 85, 2-[4-[[4-[2-[4-(trifluoromethyl)phenyl]pyrrolidin-1-yl]pyrrolo[2,3-d]pyrimidin-7-yl]methyl]phenyl]acetic acid]	–	–	–	–	> 80
–	>80	< 2000	COc1ccc(Cn2ccc3c(N4CCCC4c4ccc(C(F)(F)F)cc4)ccnc32)cc1OC (centres unmarked) [Example 67, 1-[(3,4-dimethoxyphenyl)methyl]-4-[2-[4-(trifluoromethyl)phenyl]pyrrolidin-1-yl]pyrrolo[2,3-b]pyridine]	–	–	–	–	> 80
